# Where a name gives a salt, the structure may show the parent alone.
# What was measured:
# EGF = experiment: High-throughput screening assay for EGF production (ELISA of hDF supernatants); assay type: cell-based, human; conditions: 3 days of treatment
# Experimental: (§1) For EGF production assay hDFs were plated into 96 well Clear tissue-culture treated plates (Falcon) at 19,000 cells/well in DMEM (Gibco) 1× N2/B27 Supplement (Invitrogen). […] After 3 days of treatment, supernatants were collected and analyzed for EGF content using EGF Human ELISA Kit (Abcam) and with BioTek Synergy 2 Multi-Detection Microplate Reader (see FIG. 1).
# Collagen Type 1 = experiment: High-throughput screening assay for Collagen Type 1 production (Procollagen Type 1C-Peptide EIA of hDF supernatants); assay type: cell-based, human; conditions: 3 days of treatment
# TGFβ1 = experiment: High-throughput screening assay for TGFβ1 production (ELISA of hDF supernatants); assay type: cell-based, human; conditions: 3 days of treatment
# Experimental: as §1, with “TGFβ1” for “EGF”
# [1] = tested on: human dermal fibroblast (hDF); experiment: High-throughput proliferation screening assay of human dermal fibroblasts; assay type: cell-based; conditions: at concentration of 200 nM; 3 days of treatment; DAPI imaging
# Experimental: For the proliferation assay, human dermal fibroblast (hDF) were plated into 96 well Black/Clear bottom tissue-culture treated plates (Corning) at 1,000 cells/well in DMEM (Gibco) 15% FBS (HyClone). […] After 3 days of treatment, cells were fixed and stained with DAPI and analyzed using Roche Cellavista High-Content Imaging System (see FIG. 1).
# FGF7 = experiment: High-throughput screening assay for FGF7 production (ELISA of hDF supernatants); assay type: cell-based, human; conditions: at concentration of 25 μM; 3 days of treatment
# Experimental: as §1, with “FGF7” for “EGF”
# [2] = at concentrations of 25 and 12.5 μM
compound,measurement,setting,value
CN1Cc2ccccc2[C@@H]2c3cccc4[nH]cc(c34)C[C@H]21 [CY 208-243],production level of EGF in hDFs,EGF; at concentrations of 12.5 μM,induced the highest production level
O=C(O)c1ccc(-c2ccc3cc(O)c(C45CC6CC(CC(C6)C4)C5)cc3c2)cc1 [CD 1530],production level of EGF in hDFs,EGF; [2],induced the highest production level
O=C1CCc2cc(OCCCCc3nnnn3C3CCCCC3)ccc2N1 [Cilostazol],production level of Collagen Type 1 in hDFs,Collagen Type 1; at concentration of 6.25 μM,induced the highest production level
Proxyfan Oxalate,production level of TGFβ1 in hDFs,TGFβ1; at concentration of 24 nM,induced the highest production level
CS(=O)(=O)O.N=C(N)SCCc1ccc(OCc2ccc([N+](=O)[O-])cc2)cc1 [KB-R7943 mesylate],production level of TGFβ1 in hDFs,TGFβ1; at concentration of 1.6 μM,induced the highest production level
O=C(O)c1ccc2cc(-c3ccc(O)c(C45CC6CC(CC(C6)C4)C5)c3)ccc2c1 [CD 437],production level of EGF in hDFs,EGF; [2],induced the highest production level
Cl.Cl.Nc1ncnc2nc(-c3ccc(N4CCOCC4)nc3)cc(-c3cccc(Br)c3)c12 [ABT702 dihydrochloride],proliferation level in hDFs,[1],induced the highest proliferation level
PSB 06126,production level of EGF in hDFs,EGF; at concentration of 12.5 (unit not given),induced the highest production level
CN1CCC[C@@H]1CCO[C@](C)(c1ccccc1)c1ccc(Cl)cc1 [Clemastine fumarate],production level of Collagen Type 1 in hDFs,Collagen Type 1; at concentration of 780 nM,induced the highest production level
CN1CC(=O)NC1=NC(=O)Nc1cccc(Cl)c1 [Fenobam],proliferation level in hDFs,[1],induced the highest proliferation level
CN(C)C(=O)C(=O)c1cn(C)c2cc(Cl)c(C(=O)N3CCC(Cc4ccc(F)cc4)CC3)cc12 [SX 011],proliferation level in hDFs,[1],induced the highest proliferation level
OCCN(CCO)c1nc(N2CCCCC2)c2nc(N(CCO)CCO)nc(N3CCCCC3)c2n1 [Dipyridamole],production level of Collagen Type 1 in hDFs,Collagen Type 1; at concentration of 390 nM,induced the highest production level
CCCCC[C@H](O)/C=C/[C@H]1[C@H](O)CC(=O)[C@@H]1C/C=C\CCCC(=O)O [Prostaglandin E2],production level of FGF7 in hDFs,FGF7,induced the highest production level
Cc1cc(C)c(S(=O)(=O)Nc2cccc(C(F)(F)F)c2)c(C)c1 [m-3M3FBS],production level of TGFβ1 in hDFs,TGFβ1; at concentration of 24 nM,induced the highest production level

# From patent US10335422B2, “Small molecules that promote skin regeneration” (International Stem Cell Corporation, priority 2013, dated 2019)
